“Also recorded” adds a separate entry of the source.
biological target: M. ramosa APAH (Mycoplana ramosa, UniProt Q48935); assay: Fluorimetric APAH inhibition assay; type: biochemical; conditions: not given
Sequence (Q48935 whole entry): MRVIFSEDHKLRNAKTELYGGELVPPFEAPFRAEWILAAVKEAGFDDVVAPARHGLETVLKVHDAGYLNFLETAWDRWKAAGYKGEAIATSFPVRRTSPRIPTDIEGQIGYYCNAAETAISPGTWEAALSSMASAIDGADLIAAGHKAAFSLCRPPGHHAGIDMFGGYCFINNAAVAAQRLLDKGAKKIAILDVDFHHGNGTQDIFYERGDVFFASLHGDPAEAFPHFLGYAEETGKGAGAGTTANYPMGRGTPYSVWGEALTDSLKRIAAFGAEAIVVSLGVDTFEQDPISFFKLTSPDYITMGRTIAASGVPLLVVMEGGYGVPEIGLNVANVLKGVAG

Row | SMILES | IC50 [µM]
1 | Cl.Cl.NCCCNCCCCCC(=O)C(F)(F)F [IV, 7-[(3-aminopropyl)amino]-1,1,1-trifluoroheptan-2-one dihydrochloride] | 38
2 | CC(=O)SCC(=O)CCCCCNCCCN.Cl.Cl [V, 7-{[(3-aminopropyl)amino]-2-oxoheptyl} thioacetate dihydrochloride] | 4000

same assay, conditions: qualitative range stated in text

Row | SMILES | Inhibitory potency against APAH, IC50 range in words
3 | COCC(=O)CCCCCNCCCN.Cl.Cl [VI, 7-[(3-aminopropyl)amino]-1-methoxyheptan-2-one dihydrochloride] | mid-micromolar range
4 | CS(=O)(=O)CCCCCNCCCN.Cl.Cl [IX, N^1-[5-(methylsulfonyl)pentyl]propane-1,3-diamine dihydrochloride] | millimolar range
5 | Cl.Cl.NCCCNCCCCCC(=O)O [I, 6-[(3-aminopropyl)amino]hexanoic acid dihydrochloride] | millimolar range
6 | Cl.Cl.NCCCNCCCCCC(=O)NO [III, 6-[(3-aminopropyl)amino]-N-hydroxyhexanamide dihydrochloride] | nanomolar range; also recorded: nanomolar inhibitory potency
7 | CC(=O)SCCCCCNCCCN.Cl.Cl [VII, S-{5-[(3-aminopropyl)amino]pentyl} thioacetate dihydrochloride] | millimolar range
8 | Cl.Cl.NCCCNCCCCCB(O)O [X, 5-[(3-aminopropyl)amino]pentylboronic acid dihydrochloride] | mid-micromolar range
9 | CC(=O)CCCCCNCCCN.Cl.Cl [II, 7-[(3-aminopropyl)amino]heptan-2-one dihydrochloride] | mid-micromolar range
10 | Cl.Cl.NCCCNCCCCCC(=O)C(F)(F)F [IV, 7-[(3-aminopropyl)amino]-1,1,1-trifluoroheptan-2-one dihydrochloride] | nanomolar range; also recorded: nanomolar inhibitory potency
11 | CC(=O)SCC(=O)CCCCCNCCCN.Cl.Cl [V, 7-{[(3-aminopropyl)amino]-2-oxoheptyl} thioacetate dihydrochloride] | mid-micromolar range
12 | Cl.Cl.NCCCNCCCCCS [VIII, 5-[(3-aminopropyl)amino]pentane-1-thiol dihydrochloride] | mid-micromolar range

Source: PMC3715397 (Bioorganic & medicinal chemistry, 2013)
